Measured values reported in patent publication US20030171397A1 (priority 2003, published 2003).
“Also recorded” adds a separate entry of the source. Where two headings read alike, the source gives them in different places. Numbered stars: 1 amine (or outer) side, 2 acyl side, 3 side chain; on linkers, the order of the positions; unused ones are H or OH. Bridge positions count the residues as written; N and C are the ends. Square brackets hold non-standard residues; d marks the D form. Peptide text beside a SMILES is read from it. I, II: the chains in the order shown. Actinocin(9to1) = Cc1c2oc3c(C)ccc(C(=O)[*:1])c3nc-2c(C(=O)[*:2])c(N)c1=O; NMeV = CN[C@H](C(=O)O)C(C)C; Sar = CNCC(=O)O

Columns and labels:
[1] = tested on: SKBr3 cell lines; type: cell-based, human
Description: (§1) Cells were seeded at 100,000 cells/well.
(§2) DNA fragmentation occurring during apoptosis can be detected by incorporating fluorescein-12-dUTP at the 3′-OH DNA ends using the enzyme, terminal deoxynucleotidyl transferase (TdT). TUNEL (TdT-mediated dUTP Nick-End Labeling) was performed using the Apoptosis Detection System, Fluorescein Kit (Promega, Madison, Wis.) according to the manufacturer's specification. After treatment with sigma ligands at the concentrations and times specified, cells were fixed with 4% formaldehyde, permeabilized with Triton X-100, and incubated with fluorescein-12-dUTP and terminal deoxynucleotidyl transferase and then with propidium iodide. Propidium iodide stains the DNA in both apoptotic and non-apoptotic cells with orange-red color. Fluorescein produces yellow-green fluorescence, indicating fragmented DNA within the nucleus of apoptotic cells. Filters used: excitation 450-490 nm, barrier 520 nm.

[2] = tested on: T47D cells; type: cell-based, human
Description: as §1, §2

[3] = tested on: breast tumor cell lines possessing p53 mutations; conditions: Crawford et al., 1999; cited from earlier work
[4] = tested on: MCF-7 cells; assay: Detection of apoptosis by Annexin V binding; type: cell-based, human; conditions: drug 100 μM; Z-VAD-FMK or Y-VAD-CHO 50 μM; 48 hours; FIG. 5
Description: as §1
The early stages of apoptosis are characterized by translocation of phosphatidyl serine (PS) from the inner surface of the plasma membrane to the outer surface of the membrane. Externalized PS can then be detected using Annexin V, a protein with high affinity for PS. This was carried out using the ApoAlert Annexin V Apoptosis Kit (Clontech, Palo Alto, Calif.) according to the manufacturer's specifications. After incubation with sigma ligands at the concentrations and times specified, live cells (without fixing) were incubated with annexin V-FITC and propidium iodide, and were investigated using fluorescence microscopy. […] Filters used: excitation 450 nm, barrier 535 nm.

[5] = tested on: MCF-7 cells; assay: Detection of apoptosis by the TUNEL method; type: cell-based, human; conditions: 100 μM, 48 hours; for TUNEL assay result: FIG. 2
Description: as §1, §2

[6] = tested on: MCF-7 cells
Description: (§3) Human breast tumor cell lines (MCF-7, T47D, SKBr3, and MCF-7/Adr^−) were cultured in DMEM containing 3.7 g/liter Na2HCO3, fetal bovine serum (10%), and insulin (10 mg/liter). For cytotoxicity assays, cells were transferred to DMEM+Ham's nutrient mixture F-12 (without phenol red), with 1.2 g/liter Na2HCO3. Cells were seeded at 100,000 cells/well. Human SK-N-SH neuroblastoma and DU-145 prostate carcinoma cells were cultured in DMEM, supplemented with fetal bovine serum (10%).
(§4) Cell death was assessed by release of lactate dehydrogenase (LDH) into the culture medium using the CytoTox 96 kit from Promega (Madison, Wis.). The method used was as specified by manufacturer with minor modifications. Cells were plated and cultured in 24-well plates for 1 to 2 days prior to the experiment. Cells were treated in the plates under the specified drug conditions. Following treatment, the medium was transferred to centrifuge tubes and centrifuged to remove cell debris. Supernatant (50 μl) was transferred to a 96-well plate, to which was added substrate mix in assay buffer, followed by stop solution after a 30 min incubation. Formation of formazan was monitored at 490 nm in a plate reader. Values are expressed relative to total lysis controls (Triton X-100 was used to determine value for 100% cell kill) and no drug-controls. Doxorubicin and caspase inhibitors (Z-VAD-FMK, Y-VAD-CHO, DEVD-CHO) were obtained from Calbiochem (San Diego, Calif.) and actinomycin-D from Sigma (St. Louis, Mo.).

[7] = tested on: tumor cell lines or primary cultures of rat neuronal cells; conditions: continued exposure; cited from earlier work
[8] = tested on: sigma-2 receptor; conditions: cited from earlier work; for sigma receptor subtype selectivity: sigma-2 vs sigma-1
[9] = tested on: SKBr3 cells; assay: Cytotoxicity assay, LDH release into culture medium; type: cell-based, human; conditions: various concentrations, FIG. 3A
Description: as §1

[10] = tested on: T47D cells; assay: as above; type: cell-based, human; conditions: various concentrations, FIG. 3B
Description: as §1

[11] = tested on: breast tumor cell lines; assay: Cytotoxicity (LDH release) across breast tumor cell lines; type: cell-based, human; conditions: for effect of p53 status on cytotoxic potency: mutant p53 (MCF-7/Adr^−, SKBr3, T47D) vs wild-type p53 MCF-7, FIG. 4B; for relative cytotoxic potency: FIG. 3A, 3B, 4B
Description: as §1

[12] = tested on: SK-N-SH neuroblastoma cells; conditions: cited from earlier work
[13] = tested on: MCF-7/Adr^− cells; assay: Cytotoxicity assay, LDH release into culture medium
Description: as §3, §4

[14] = up to 100 mg orally every four hours, 30 mg IV and 60 mg IM; cited from earlier work

## O=P1(N(CCCl)CCCl)NCCCO1 (stereo not shown) [cyclophosphamide]
[1]
  induction of apoptosis: apoptosis was induced
[2]
  induction of apoptosis: apoptosis was induced

## COc1cccc2c1C(=O)c1c(O)c3c(c(O)c1C2=O)C[C@@](O)(C(=O)CO)C[C@@H]3O[C@H]1C[C@H](N)[C@H](O)[C@H](C)O1 [doxorubicin]
[3]
  induction of apoptosis: greatly attenuated
[1]
  induction of apoptosis: apoptosis was induced
[2]
  induction of apoptosis: apoptosis was induced
[2]; 100 μM, 48 hours, FIG. 2
  TUNEL assay result: positive results
[4]
  effect of caspase inhibitors on drug-induced apoptosis (Annexin V binding): blocked apoptosis induced by doxorubicin
[5]
  TUNEL assay result: positive results
[6]; various concentrations, FIG. 6C
  LDH release: dose-dependent increase in LDH-release

## OC(CCCN1CCC(O)(c2ccc(Cl)cc2)CC1)c1ccc(F)cc1 (stereo not shown) [reduced haloperidol]
[2]
  TUNEL assay result: positive results
[5]
  extent of apoptotic changes / apoptotic nuclei (TUNEL): less extensively than the more potent CB64D
  TUNEL assay result: positive results
[7]
  cell morphological changes and cell death: cell death
[8]
  sigma receptor subtype selectivity: subtype non-selective

## O=C(CCCN1CCC(O)(c2ccc(Cl)cc2)CC1)c1ccc(F)cc1 [haloperidol]
[2]; 100 μM, 48 hours, FIG. 2
  TUNEL assay result: positive results
[5]
  extent of apoptotic changes / apoptotic nuclei (TUNEL): less extensively than the more potent CB64D
  TUNEL assay result: positive results
[7]
  cell morphological changes and cell death: cell death
[8]
  sigma receptor subtype selectivity: subtype non-selective

## CN1CC[C@]2(c3cccc(O)c3)CC(=O)/C(=C/c3ccccc3)[C@H]1C2 [CB-64D, (+)-1R,5R-E-8-benzylidene-5-(3-hydroxyphenyl)-2-methylmorphan-7-one]
[3]
  induction of apoptosis: induce apoptosis
[2]; 100 μM, 48 hours, FIG. 2
  TUNEL assay result: positive results
[9]
  cytotoxicity (LDH release, percentage of total cell kill): cytotoxic
[10]
  cytotoxicity (LDH release, percentage of total cell kill): cytotoxic
[4]
  effect of caspase inhibitors on drug-induced apoptosis (Annexin V binding): unaffected by co-treatment with caspase inhibitors
[5]
  extent of apoptotic changes / apoptotic nuclei (TUNEL): extensive apoptotic changes
  TUNEL assay result: positive results
[5]; in some experiments
  cells visualized displaying apoptotic nuclei: up to 100%
[11]; intact cells
  potency relative to CB-184 (fold less potent): about 10 fold
[11]
  effect of p53 status on cytotoxic potency: generally not affected by p53 status; also recorded: comparable
[7]
  cell morphological changes and cell death: activity
[8]
  sigma receptor subtype selectivity: sigma-2 subtype-selective

## CC(C)=CCN1CCC2(C)c3cc(O)ccc3CC1C2C (single isomer, unassigned; (+)) [(+)-pentazocine]
[7]
  cell morphological changes and cell death: lack of activity
[8]
  sigma-2 affinity: binds very weakly

## CN(C)CCN(C)CCc1ccc(Cl)c(Cl)c1 [BD1047]
[12]; pH 7.2
  antagonist activity in the calcium assay: ineffective
[12]; pH 8.2
  antagonist activity in the calcium assay: effectively attenuated agonist activity

## CN1CC[C@]2(c3cccc(O)c3)CC(=O)/C(=C/c3ccc(Cl)c(Cl)c3)[C@H]1C2 [CB-184, (+)-1R,5R-E-8-(3,4-dichlorobenzylidene)-5-(3-hydroxyphenyl)-2-methylmorphan-7-one]
[13]; CB184 1 μM + actinomycin D 1 μg/ml at 24 hours or 0.1 μg/ml at 48 hours, FIG. 7C, 7D
  cytotoxicity of combination with actinomycin D: potentiated
[13]; CB184 1 μM + doxorubicin 10 μM
  cytotoxicity of combination with doxorubicin: less pronounced
[9]
  cytotoxicity (LDH release, percentage of total cell kill): cytotoxic
[10]
  cytotoxicity (LDH release, percentage of total cell kill): cytotoxic
[11]; 24 hrs
  concentration below which toxicity is generally not seen in the LDH assay: below 1 μM
[11]; intact cells
  relative cytotoxic potency: more potent than CB-64D; also recorded: most potent sigma-2 selective agent in intact cells
[11]; intact cells, listed as CB184
  relative cytotoxic potency: greatest potency in all cell lines tested
[11]; below 1 μM, 48 hrs
  LDH release compared to controls: mildly increased LDH release
[11]
  effect of p53 status on cytotoxic potency: generally not affected by p53 status; also recorded: comparable
[6]; CB184 1 μM + doxorubicin 10 μM, 24 and 48 hours, FIG. 7A, 7B
  cytotoxicity of combination with doxorubicin: Clear synergistic effects
[6]; DEVD-CHO 50 μM, caspase 3 inhibitor, FIG. 6A, 6B
  effect of DEVD-CHO on cytotoxicity (LDH release): no difference
[6]; DEVD-CHO or Z-VAD-FMK 50 μM, FIG. 6A-6C
  effect of caspase inhibitors on drug-induced cytotoxicity (LDH release): not that induced by CB-184
[8]
  sigma receptor subtype selectivity: sigma-2 subtype-selective

## Cc1c2oc3c(C)ccc(C(=O)N[C@@H]4C(=O)N[C@H](C(C)C)C(=O)N5CCC[C@H]5C(=O)N(C)CC(=O)N(C)[C@@H](C(C)C)C(=O)O[C@@H]4C)c3nc-2c(C(=O)N[C@@H]2C(=O)N[C@H](C(C)C)C(=O)N3CCC[C@H]3C(=O)N(C)CC(=O)N(C)[C@@H](C(C)C)C(=O)O[C@@H]2C)c(N)c1=O [actinomycin D] (I: T[dV]P[Sar][NMeV] / II: T[dV]P[Sar][NMeV]; ester I:1-I:C, II:1-II:C; linker I:N-II:N via Actinocin(9to1))
[3]
  induction of apoptosis: greatly attenuated
[1]
  induction of apoptosis: apoptosis was induced
[2]
  induction of apoptosis: apoptosis was induced

## CC(C)=CCN1CCC2(C)c3cc(O)ccc3CC1C2C (single isomer, unassigned; (-)) [(−)-Pentazocine]
[8]
  sigma-2 affinity: has sigma-2 affinity

## CN1CCN(CCc2ccc(Cl)c(Cl)c2)CC1 [BD1063]
[12]; pH 7.2
  antagonist activity in the calcium assay: ineffective
[12]; pH 8.2
  antagonist activity in the calcium assay: effectively attenuated agonist activity

## 12-methoxyibogamine [ibogaine]
[7]
  cell morphological changes and cell death: activity

## CC(C)=CCN1CCC2(C)c3cc(O)ccc3CC1C2C (racemic) [pentazocine]
[14]
  peak plasma concentrations: about 160 ng/ml
[13]; haloperidol 25 μM or pentazocine 35 μM with various concentrations of doxorubicin, FIG. 8
  potentiation of doxorubicin-induced cytotoxicity: potentiated the cytotoxicity of doxorubicin; also recorded: potentiated the higher doses of doxorubicin
[6]; combined with doxorubicin in MCF-7 cells
  potentiation of doxorubicin-induced cytotoxicity: Little or no potentiation
